Read-outs that look alike come from different tables or passages of the source.
Experiments:
[1] = cited from earlier work
[2] = compared with DEHSPM; cited from earlier work
[3] = tested on: castor oil-induced diarrhea; settings: cited from earlier work; for activity in castor oil-induced diarrhea model (in words): rodent
[4] = tested on: diarrhea; settings: animal models and clinic; cited from earlier work
[5] = tested on: stress-induced fecal output; assay: Psychological stress-induced (water avoidance) IBS model, PO administration by gavage; assay type: in vivo, rat; settings: for oral activity against stress-induced fecal output (in words): PO gavage, non-fasted rats, 11.6-115.6 μmol/kg
Text: (§1) For drug preparation and administration, the compounds were put into solution with sterile normal saline and sonicated briefly, if necessary. The drugs were made up at concentrations such that the rats received the drugs PO or SC at the rate of 1 cc per kilogram. Mice received the CHX(3,4,3)-trans IP at 1 cc per 100 grams. The solutions were made fresh the day of the study. Control animals received an equivalent amount of saline PO or SC.
(§2) Animal care and experimental procedures were approved by the Institutional Animal Care and Use Committee. Male Sprague-Dawley rats (250-350 g, Harlan Sprague-Dawley, Indianapolis, Ind.) were housed in polycarbonate cages in a temperature- and humidity-controlled room with a 12-hour light/dark cycle. The experiments were performed at the same time of the day to decrease diurnal variability. A typical experiment involved 20 rats: 5 saline-treated controls and 5 pretreated with polyamine analogues at each of three doses as either a SC injection or a PO gavage. The rats in the SC studies and in one set of experiments involving PO administration were allowed ad libitum access to a standard rodent diet and tap water until the morning of the experiment. Stress was initiated 30 minutes post drug as described below. In another set of experiments involving PO administration, the animals were fasted overnight but were allowed free access to water. The animals were then stressed from ½ h to 2 h post-drug (data not shown). In a final experiment, non-stressed control rats were injected with saline SC and housed in individual polycarbonate cages. The fecal output (number of pellets) of the stressed and unstressed animals was recorded at 30-min intervals for a 6-h period, during which they received no food or water.
(§3) Once the drug had been administered, the animals were housed individually in polycarbonate cages containing a clear 70×50 mm Pyrex crystallization dish (Fisher, Pittsburgh, Pa.) inverted in the center and held in place with vacuum grease. To initiate the stress, water was added to each cage to a depth of at least 4.5 cm, i.e., within 0.5 cm of the top of the Pyrex dish. To avoid contact with water, the rats stand on the glass dish for the 6 h of the study. Stool output was expressed as the total number of fecal pellets excreted over the 6-h collection period. Percent reduction was calculated by dividing the mean value from the treated animals (T) by the mean value from the control animals (C), subtracting the resulting quotient from 1.0, and multiplying by 100 [i.e., (1.0−T/C)×100].
(§4) A one-tailed t-test assuming unequal variance was performed on the stool output data of the treated vs control (0 mg/kg) animals for each compound. A value of P<0.05 was considered significant.
Because an orally active compound would be desirable for the treatment of IBS, selected analogues utilizing oral administration in the same model were assessed. In the initial studies animals were utilized that had been fasted overnight. Rodents were then given the drug of interest PO by gavage and stressed ½ h, 1 h, or 2 h post-drug. Unfortunately, because of the low baseline stool output in fasted control rats, the reductions in fecal output observed upon drug administration cannot be reported with any confidence (data not shown). Thereafter, only non-fasted animals were employed and were given the agents by gavage at doses of 11.6, 23.2, 57.8, or 115.6:mol/kg 30 minutes before initiating the stress. […] At doses of 11.6 and 23.2:mol/kg, CHX(3,4,3)-trans reduced stooling by about 80% (P=0.001 and <0.001, respectively). DEHSPM was effective at a dose of […]:mol/kg (40% diminution of fecal output; P<0.01), and DE(5,4,5) was active at doses of 23.2 and 57.8:mol/kg (55 and 73% reductions in fecal output, respectively; P<0.001 for both doses).

[6] = tested on: stress-induced fecal output; assay: Psychological stress-induced (water avoidance) IBS model, SC administration; assay type: in vivo; settings: for mortality of rats after drug administration: ~24 h post-dosing
Text: as §1
as §2, with “The animals were then stressed from ½ h to 2 h post-drug (data not shown).” left out
as §3, with “To” for “Once the drug had been administered, the animals were housed individually in polycarbonate cages containing a clear 70×50 mm Pyrex crystallization dish (Fisher, Pittsburgh, Pa.) inverted in the center and held in place with vacuum grease. To”
as §4
The psychological stress-induced IBS model involves subjecting the rats to an aversive stimulus (water) and observing the increase in fecal output over a period of time. […] Control rats received an equivalent amount of saline SC.

[7] = Acute toxicity assessment, single intraperitoneal injection; assay type: in vivo; settings: toxic doses, mice
Experimental: For the acute toxicity assessment the CHX(3,4,3)-trans was administered to female CD-1 mice (Charles River, Wilmington, Mass.) as a single intraperitoneal (IP) injection. The animals were carefully observed post-dosing and were scored 2 h after administration of the drug.
as §1

[8] = tested on: stress-induced fecal output; assay: Psychological stress-induced (water avoidance) IBS model, SC administration; assay type: in vivo; settings: 57.8 μmol/kg SC; experiment stopped after 2 h, results after 2 h
[9] = dog; relative to 2-3 weeks in mice; cited from earlier work
[10] = mice; N-de-ethylated metabolite of DEHSPM; cited from earlier work
[11] = tested on: constipation-predominant IBS; settings: eight patients, 16 mg three times a week, eight weeks; cited from earlier work
[12] = dogs, 4.3 mg/kg/day for 14 days or 2.15 mg/kg/d for 28 days
[13] = 2.3 μmol/kg SC, stress 30 min post drug, 6-h collection
[14] = 11.6 μmol/kg SC, 6-h collection
[15] = 57.8 μmol/kg SC, 6-h collection
[16] = 57.8 μmol/kg SC, listed as DBSPM
[17] = Rattus norvegicus, sc, 2 h, read-out: % Reduction

## CCNCC[C@@H](O)CNCCCCNC[C@H](O)CCNCC [(HO)2DEHSPM, (3R, 12R)-N^1,N^14-diethyl-3,12-dihydroxyhomospermine]
[1]; [12]
  onset of exocrine pancreatic insufficiency post-final dose: approximately 40 days
  pancreatic toxicity: exocrine pancreatic insufficiency developed
[1]; treated dogs
  induction of cardiac bigeminies: minimal
[2]
  residence time in most mouse tissues: shorter than that of DEHSPM
[3]
  activity in castor oil-induced diarrhea model (in words): considerably decreased stool output
[4]
  antidiarrheal activity (in words): as effective an antidiarrheal as DEHSPM

## CCNCCCNCCCNCCCNCC [Compound 1, N^1,N^11-diethylnorspermine]
[5]
  oral activity against stress-induced fecal output (in words): only CHX(3,4,3)-trans, DEHSPM, and DE(5,4,5) showed any activity at all
[3]; listed as DENSPM
  activity in castor oil-induced diarrhea model (in words): ineffective in reducing stooling
[6]; [13]
  Stool Output: 17.4 ± 5.1 number of fecal pellets
[6]; [14]
  Stool Output: 15.2 ± 4.5 number of fecal pellets
[6]; [15]
  Stool Output: 13.4 ± 5.9 number of fecal pellets
[6]; SC administration to stressed rats, listed as DENSPM
  activity at diminishing stress-induced fecal output (in words): completely ineffective

## CCNCCCNCCCCNCCCNCC [Compound 3, N^1,N^12 diethylspermine]
[5]
  oral activity against stress-induced fecal output (in words): only CHX(3,4,3)-trans, DEHSPM, and DE(5,4,5) showed any activity at all
[7]
  signs of acute toxicity in mice: generalized depression with respiratory failure
[6]; 23.2 μmol/kg SC, 6-h collection
  Stool Output: 12.5 ± 2.9 number of fecal pellets
[6]; 35.4 μmol/kg SC, 6-h collection
  Stool Output: 9.0 ± 6.3 number of fecal pellets
[6]; 61 μmol/kg SC, 6-h collection
  Stool Output: 2.8 ± 2.7 number of fecal pellets
[6]; Rattus norvegicus, 23.2 μmol/kg SC, vs stressed controls, 6 h, read-out: % Reduction
  inhibition in vivo at 23.2 µmol/kg: 35%
[6]; Rattus norvegicus, 35.4 μmol/kg SC, vs stressed controls, 6 h, read-out: % Reduction
  inhibition in vivo at 35.4 µmol/kg: 53%
[6]; Rattus norvegicus, 61 μmol/kg SC, vs stressed controls, 6 h, read-out: % Reduction
  inhibition in vivo at 61 µmol/kg: 90%

## CCCCNCCCNCCCCNCCCNCCCC [Compound 5]
[8]
  Stool Output: 0 ± 0 number of fecal pellets
[3]; doses equivalent to a 5 mg/kg dose of DEHSPM
  neurotoxicity in rats at subtherapeutic doses: Signs of neurotoxicity
[6]; [13]
  Stool Output: 14.0 ± 4.8 number of fecal pellets
[6]; 11.6 μmol/kg SC
  toxic effects observed in stressed rats: ^eDue to severe CNS toxicity, the experiment was stopped after 2 h; the results after 2 h are reported.
[6]; 11.6 μmol/kg SC, experiment stopped after 2 h, results after 2 h
  Stool Output: 0 ± 0 number of fecal pellets
[6]; 11.6 μmol/kg SC, experiment stopped after 2 h, results after 2 h, listed as DBSPM
  % Reduction: completely eliminated fecal output
[6]; 11.6 μmol/kg SC, listed as DBSPM
  toxic effects observed in stressed rats: severe neurotoxicity
[6]; 57.8 μmol/kg SC
  toxic effects observed in stressed rats: ^eDue to severe CNS toxicity, the experiment was stopped after 2 h; the results after 2 h are reported.
  mortality of rats after drug administration: ^fAll rats in this group died ˜24 h after drug administration.
[6]; [16]
  mortality of rats after drug administration: died within ˜24 h post-dosing
  toxic effects observed in stressed rats: severe neurotoxicity
[6]; [17]
  inhibition in vivo at 11.6 µmol/kg: 100%
  inhibition in vivo at 57.8 µmol/kg: 100%
[6]; Rattus norvegicus, 2.3 μmol/kg SC, vs stressed controls, 6 h, read-out: % Reduction
  inhibition in vivo at 2.3 µmol/kg: 39%

## CCNCCCCNCCCCNCCCCNCC [Compound 13, N^1,N^14-diethylhomospermine]
[5]; 115.6 μmol/kg PO, 6-hr collection
  Stool Output: 10.6 ± 1.8 number of fecal pellets
[5]; 115.6 μmol/kg PO, vs stressed controls, 6 hr
  % Reduction: 40%
[5]; 15.6 :mol/kg PO
  diminution of fecal output: 40%
[7]
  signs of acute toxicity in mice: generalized depression with respiratory failure
[1]; SC, dogs, 2 mg/kg daily
  time at which arrhythmia was apparent in 6-lead EKG: as early as three days
[1]; SC, three dogs, 2 mg/kg daily for 11-17 days
  cardiac effect: ventricular bigeminies
[4]
  antidiarrheal activity (in words): very potent antidiarrheal
[6]; [14]
  Stool Output: 2.1 ± 2.1 number of fecal pellets
[6]; [15]
  Stool Output: 0 ± 0 number of fecal pellets
[6]; Rattus norvegicus, 11.6 μmol/kg SC, vs stressed controls, 6 h, read-out: % Reduction
  inhibition in vivo at 11.6 µmol/kg: 89%
[6]; Rattus norvegicus, 57.8 μmol/kg SC, vs stressed controls, 6 h, read-out: % Reduction
  inhibition in vivo at 57.8 µmol/kg: 100%

## NCCCCNCCCCNCCCCN [HSPM, homospermine]
[9]
  half-life: even longer
[10]
  half-life: 2-3 weeks

## C=C1CCC2(O)C3Cc4ccc(OC5OC(C(=O)O)C(O)C(O)C5O)c5c4C2(CCN3CC2CC2)C1O5 (stereo not shown) [Nalmefene glucuronide]
[11]
  abdominal pain or bloating: did not reduce abdominal pain or bloating
  transit time and stool frequency: decreased transit time and increased stool frequency

Source: patent publication US6818656B2, “Method and composition for treatment of irritable bowel disease” (University of Florida, priority 2001, dated 2004)
